pIC50: −log10 of the molar value.
How the values were obtained:
[1] = tested on: EGFR (Human), P00533 [Assessment of Proliferation in EGFR DelE746_A750 Mutant Expressing HCC827 Cells]
[2] = tested on: EGFR (human), P00533 [WT]; conditions: a431
[3] = tested on: EGFR (Human), P00533 [T790M/L858R]; conditions: nci-h1975
[4] = target: EGFR (human), P00533 [WT]

EGFR (human), P00533 [WT], sequence (P00533 whole entry, looked up): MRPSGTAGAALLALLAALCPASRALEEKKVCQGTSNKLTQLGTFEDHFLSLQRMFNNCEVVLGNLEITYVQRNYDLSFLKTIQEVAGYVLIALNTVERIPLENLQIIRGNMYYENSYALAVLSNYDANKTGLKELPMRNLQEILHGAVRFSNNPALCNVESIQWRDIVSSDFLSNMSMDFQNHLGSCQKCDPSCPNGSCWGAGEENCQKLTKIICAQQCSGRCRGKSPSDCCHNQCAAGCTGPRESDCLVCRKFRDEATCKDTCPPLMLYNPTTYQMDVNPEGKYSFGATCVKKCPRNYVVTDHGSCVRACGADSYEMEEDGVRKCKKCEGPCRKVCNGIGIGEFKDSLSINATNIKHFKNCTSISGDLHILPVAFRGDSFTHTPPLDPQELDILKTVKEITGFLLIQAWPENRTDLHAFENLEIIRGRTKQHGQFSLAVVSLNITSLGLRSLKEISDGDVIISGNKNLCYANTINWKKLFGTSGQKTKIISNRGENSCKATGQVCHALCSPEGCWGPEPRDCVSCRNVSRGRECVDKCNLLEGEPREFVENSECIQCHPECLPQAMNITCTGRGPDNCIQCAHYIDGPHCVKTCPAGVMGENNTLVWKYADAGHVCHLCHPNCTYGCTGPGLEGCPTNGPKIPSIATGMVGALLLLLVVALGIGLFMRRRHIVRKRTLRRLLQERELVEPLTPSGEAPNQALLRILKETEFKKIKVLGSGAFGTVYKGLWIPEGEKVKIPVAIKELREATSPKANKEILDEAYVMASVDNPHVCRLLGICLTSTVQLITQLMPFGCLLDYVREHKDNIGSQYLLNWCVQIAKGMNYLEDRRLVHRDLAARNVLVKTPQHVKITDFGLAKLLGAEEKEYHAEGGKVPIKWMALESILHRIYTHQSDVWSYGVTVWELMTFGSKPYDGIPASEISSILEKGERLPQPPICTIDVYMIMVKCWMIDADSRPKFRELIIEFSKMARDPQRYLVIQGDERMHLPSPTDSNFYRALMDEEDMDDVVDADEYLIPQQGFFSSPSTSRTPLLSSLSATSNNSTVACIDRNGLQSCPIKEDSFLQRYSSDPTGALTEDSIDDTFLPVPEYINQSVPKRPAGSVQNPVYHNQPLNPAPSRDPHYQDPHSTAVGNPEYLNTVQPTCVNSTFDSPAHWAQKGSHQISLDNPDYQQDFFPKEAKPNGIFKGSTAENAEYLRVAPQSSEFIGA
EGFR (Human), P00533 [Assessment of Proliferation in EGFR DelE746_A750 Mutant Expressing HCC827 Cells], sequence (P00533 whole entry, looked up, stated change not applied): as the sequence (P00533 whole entry, looked up) above
EGFR (Human), P00533 [T790M/L858R], sequence (P00533 whole entry T790M/L858R, looked up): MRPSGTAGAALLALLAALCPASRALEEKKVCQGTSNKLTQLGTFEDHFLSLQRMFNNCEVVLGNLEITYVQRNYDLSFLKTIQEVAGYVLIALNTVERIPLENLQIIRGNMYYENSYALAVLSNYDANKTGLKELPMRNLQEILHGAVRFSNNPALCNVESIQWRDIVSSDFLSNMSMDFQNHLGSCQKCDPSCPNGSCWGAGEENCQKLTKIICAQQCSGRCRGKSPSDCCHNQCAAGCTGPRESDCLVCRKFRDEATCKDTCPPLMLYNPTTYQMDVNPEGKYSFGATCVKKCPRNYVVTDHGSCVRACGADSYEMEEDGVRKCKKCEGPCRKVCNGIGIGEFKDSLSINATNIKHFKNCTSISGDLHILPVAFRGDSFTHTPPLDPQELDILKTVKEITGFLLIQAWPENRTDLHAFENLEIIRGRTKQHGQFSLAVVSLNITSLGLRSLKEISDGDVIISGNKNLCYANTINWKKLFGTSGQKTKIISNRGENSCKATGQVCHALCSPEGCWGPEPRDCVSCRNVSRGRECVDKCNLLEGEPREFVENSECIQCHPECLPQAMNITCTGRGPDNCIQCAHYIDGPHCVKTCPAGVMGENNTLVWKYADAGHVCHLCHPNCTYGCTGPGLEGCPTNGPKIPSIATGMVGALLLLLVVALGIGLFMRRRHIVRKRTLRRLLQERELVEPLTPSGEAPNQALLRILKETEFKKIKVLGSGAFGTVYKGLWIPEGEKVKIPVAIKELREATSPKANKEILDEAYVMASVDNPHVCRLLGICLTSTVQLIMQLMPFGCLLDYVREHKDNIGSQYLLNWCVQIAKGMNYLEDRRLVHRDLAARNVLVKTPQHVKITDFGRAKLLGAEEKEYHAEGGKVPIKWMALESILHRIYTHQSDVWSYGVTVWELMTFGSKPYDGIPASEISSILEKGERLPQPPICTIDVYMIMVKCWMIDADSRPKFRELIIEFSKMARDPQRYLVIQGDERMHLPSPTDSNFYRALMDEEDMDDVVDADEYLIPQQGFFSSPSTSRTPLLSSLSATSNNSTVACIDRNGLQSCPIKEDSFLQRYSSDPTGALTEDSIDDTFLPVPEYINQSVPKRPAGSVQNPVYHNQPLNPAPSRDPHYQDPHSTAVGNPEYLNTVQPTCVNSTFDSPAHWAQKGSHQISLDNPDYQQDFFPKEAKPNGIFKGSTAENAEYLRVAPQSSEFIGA

SMILES	GI50 [1]	pIC50 [4]	GI50 [2]	GI50 [3]
C=CC(=O)Nc1cccc(Oc2nc(Nc3ccc(CCO)cc3)nc3ccsc23)c1	≤ 0.05 µM	–	–	≤ 0.05 µM
C=CC(=O)Nc1cccc(Nc2nc(Nc3ccc(N4CCN(C)CC4)c(F)c3)nc3ccsc23)c1	≤ 0.05 µM	–	–	≤ 0.05 µM
C=CC(=O)Nc1cccc(Oc2nc(Nc3ccc(OCCOC)c(F)c3)nc3ccsc23)c1	0.05 to 0.1 µM	–	–	≤ 0.05 µM
C=CC(=O)Nc1cccc(Oc2nc(Nc3ccc(NC4CCN(C)CC4)c(F)c3)nc3ccsc23)c1	≤ 0.05 µM	–	–	≤ 0.05 µM
C=CC(=O)Nc1cccc(Oc2nc(Nc3ccc(N4CCN(C5CCCCC5)CC4)cc3)nc3ccsc23)c1	≤ 0.05 µM	–	0.1 to 1 µM	≤ 0.05 µM
C=CC(=O)Nc1cccc(Nc2nc(Nc3ccc(NC4CCN(C)CC4)c(F)c3)nc3ccsc23)c1	≤ 0.05 µM	–	–	0.05 to 0.1 µM
C=CC(=O)Nc1cccc(Oc2nc(Nc3ccc(C(C)=O)cc3)nc3ccsc23)c1	≤ 0.05 µM	–	–	≤ 0.05 µM
C=CC(=O)Nc1cccc(Oc2nc(Nc3ccc(CCN4CCCCC4)cc3)nc3ccsc23)c1	≤ 0.05 µM	–	–	≤ 0.05 µM
C=CC(=O)Nc1cccc(Oc2nc(Nc3ccc(N4CCC(CO)CC4)cc3)nc3ccsc23)c1	≤ 0.05 µM	–	–	0.05 to 0.1 µM
C=CC(=O)Nc1cccc(Oc2nc(Nc3ccc(S(C)(=O)=O)cc3)nc3ccsc23)c1	0.05 to 0.1 µM	–	–	≤ 0.05 µM
C=CC(=O)Nc1cccc(Oc2nc(Nc3ccc(N4CCN(C)CC4)c(OC)c3)nc3ccoc23)c1	≤ 0.05 µM	–	–	≤ 0.05 µM
C=CC(=O)Nc1cccc(Oc2nc(Nc3ccc(C4CCN(CC)CC4)cc3)nc3ccsc23)c1	≤ 0.05 µM	–	–	≤ 0.05 µM
C=CC(=O)Nc1cccc(Nc2nc(Nc3ccc(CCN(C)C)cc3)nc3ccsc23)c1	0.05 to 0.1 µM	–	–	≤ 0.05 µM
C=CC(=O)Nc1cccc(Oc2nc(Nc3ccc(CCN(C)C)cc3)nc3ccsc23)c1	≤ 0.05 µM	–	–	≤ 0.05 µM
C=CC(=O)Nc1cccc(Oc2nc(Nc3ccc(N4CC[S+]([O-])CC4)cc3)nc3ccsc23)c1	≤ 0.05 µM	–	–	≤ 0.05 µM
C=CC(=O)Nc1cccc(Oc2nc(Nc3ccc(N4CCN(C5CCN(C)CC5)CC4)nc3)nc3ccsc23)c1	≤ 0.05 µM	–	–	≤ 0.05 µM
C=CC(=O)Nc1cccc(Oc2nc(Nc3ccc(N4CC[C@@H](n5ccnc5)C4)cc3)nc3ccsc23)c1	0.05 to 0.1 µM	–	–	≤ 0.05 µM
C=CC(=O)Nc1cccc(Oc2nc(Nc3ccc(N4CCN(CCO)CC4)cc3)nc3ccsc23)c1	≤ 0.05 µM	–	–	≤ 0.05 µM
C=CC(=O)Nc1cccc(Nc2nc(Nc3ccc(OCCCN(C)C)cc3)nc3ccsc23)c1	0.05 to 0.1 µM	–	–	0.05 to 0.1 µM
C=CC(=O)Nc1cccc(Oc2nc(Nc3ccc(C4(N)CC4)cc3)nc3ccsc23)c1	≤ 0.05 µM	–	–	≤ 0.05 µM
C=CC(=O)Nc1cccc(Oc2nc(Nc3ccc(C(=O)N4CCN(S(=O)(=O)CC)CC4)c(Cl)c3)nc3ccsc23)c1	≤ 0.05 µM	–	–	0.05 to 0.1 µM
C=CC(=O)Nc1cccc(Oc2nc(Nc3ccc(N4CCN(C)CC4)cc3)nc3ccoc23)c1	≤ 0.05 µM	–	0.1 to 1 µM	≤ 0.05 µM
C=CC(=O)Nc1cccc(Oc2nc(Nc3ccc(N4CCOCC4)cc3)nc3ccsc23)c1	0.05 to 0.1 µM	–	–	≤ 0.05 µM

Further lines, with some results ahead:

GI50 [1]	pIC50 [4]	SMILES	GI50 [2]	GI50 [3]
≤ 0.05 µM	–	C=CC(=O)Nc1cccc(Oc2nc(Nc3ccc(N4CCN(C(C)C)CC4)cc3)nc3ccsc23)c1	0.1 to 1 µM	≤ 0.05 µM
≤ 0.05 µM	–	C=CC(=O)Nc1cccc(Oc2nc(Nc3ccc(CN(C)C)cc3)nc3ccsc23)c1	0.1 to 1 µM	≤ 0.05 µM
≤ 0.05 µM	6.00 to 7.00	C=CC(=O)Nc1cccc(Oc2nc(Nc3ccc(N4CCC(N5CCCCC5)CC4)cc3)nc3ccsc23)c1	–	≤ 0.05 µM
≤ 0.05 µM	–	C=CC(=O)Nc1cccc(Oc2nc(Nc3ccc(N4CCN(CC)CC4)cc3)nc3ccsc23)c1	0.1 to 1 µM	≤ 0.05 µM
≤ 0.05 µM	–	C=CC(=O)Nc1cccc(Oc2nc(Nc3ccc(C(=O)NC4CCN(C(C)C)CC4)cc3)nc3ccsc23)c1	0.1 to 1 µM	≤ 0.05 µM
≤ 0.05 µM	6.00 to 7.00	C=CC(=O)Nc1cccc(Nc2nc(Nc3ccc(N4CCN(C)CC4)cc3)nc3ccsc23)c1	–	≤ 0.05 µM
≤ 0.05 µM	–	C=CC(=O)Nc1cccc(Oc2nc(Nc3ccc(N4CCN(C(C)C)CC4)cc3)nc3ccoc23)c1	0.1 to 1 µM	≤ 0.05 µM
≤ 0.05 µM	–	C=CC(=O)Nc1cccc(Oc2nc(Nc3ccc(OCCN(C)C)c(F)c3)nc3ccsc23)c1	–	≤ 0.05 µM
≤ 0.05 µM	–	C=CC(=O)Nc1cccc(Oc2nc(Nc3ccc(CN(CC)CC)cc3)nc3ccsc23)c1	–	≤ 0.05 µM
≤ 0.05 µM	–	C=CC(=O)Nc1cccc(Oc2nc(Nc3ccc(C4=CCN(C)CC4)cc3)nc3ccsc23)c1	–	≤ 0.05 µM
≤ 0.05 µM	–	C=CC(=O)Nc1cccc(Oc2nc(Nc3ccc(N4CCC(N5CCOCC5)CC4)c(F)c3)nc3ccsc23)c1	–	≤ 0.05 µM
≤ 0.05 µM	–	C=CC(=O)Nc1cccc(Oc2nc(Nc3ccc(N4CCC(n5ccnc5)C4)cc3)nc3ccsc23)c1 (stereo not drawn)	–	≤ 0.05 µM
≤ 0.05 µM	–	C=CC(=O)Nc1cccc(Nc2nc(Nc3ccc(OCCN(C)C)cc3)nc3ccsc23)c1	–	≤ 0.05 µM
≤ 0.05 µM	–	C=CC(=O)Nc1cccc(Oc2nc(Nc3ccc4c(c3)NCCCO4)nc3ccsc23)c1	–	≤ 0.05 µM

From the Kinase Knowledgebase extract (Sharma et al. 2016)
